The results in this text go back to patent publication US20090074750A1, “REGULATOR OF BASAL CELLULAR CALCIUM CONCENTRATION AND METHODS OF USE” (priority 2007, published 2009).

The assay concerns HeLa cells. The assay can be described thus: YFP-Stim2 localization after thapsigargin ER Ca^2+ store depletion (confocal imaging). Type of assay: cell-based, human. The conditions noted are these: 1 uM thapsigargin. The method, then:
FIG. 3. Stim2 translocates to ER-PM junctions following ER Ca^2+ depletion. (A-C) YFP-Stim2 was expressed (˜24 hour) in HeLa (A), HUVEC, (B), and HEK293T (C) cells and confocal images were taken before and 2 minutes after 1 uM thapsigargin addition. […] HeLa cells were transfected for two days with ORAI1 siRNA and transfected for 24 hours with YFP-Stim2. Cells used in the analysis expressed YFP at 7.5 to 15 fold above background. N=10 sites.
Confocal imaging was performed using a Zeiss spinning disk confocal. Cells were imaged in extracellar buffer as described in the Ca^2+ measurements section.
We employed the YFP tagged Stim2 construct to investigate its localization and activation mechanism. Cells with submaximal YFP-Stim2 expression were selected to minimize expression artifacts. […] We observed the same YFP-Stim2 puncta formation in HeLa, Huvec, and HEK293T cell lines (FIGS. 3A-C). We then compared Stim1 and Stim2 localization by co-transfection of CFP-Stim1 and YFP-Stim2 followed by thapsigargin-induced depletion of ER Ca^2+ stores. CFP-Stim1 and YFP-Stim2 were co-localized in the same puncta that have previously been characterized as ER-PM junction sites (FIG. 3D) (Liou et al., 2005, Wu et al., 2006). […]

With `C/C=C(/C)C(=O)O[C@H]1C(C)=C2[C@H]([C@@H]1OC(=O)CCCCCCC)[C@@](C)(OC(C)=O)C[C@H](OC(=O)CCC)[C@@]1(O)[C@H]2OC(=O)[C@@]1(C)O` [thapsigargin], the “YFP-Stim2 translocation to PM localized puncta” value is listed as “rapid translocation”.
